Source: ChEMBL document CHEMBL1201862, “PubChem BioAssay data set” (2004)
Calls of active or inactive are those of the source.

Columns and labels:
Beta-lactamase [1] = biological target: T1, Beta-lactamase (Pseudomonas aeruginosa, UniProt Q79MP6); test: inhibition of IMP-1 beta-lactamase activity – biochemical, epi-absorbance, selectivity assay for VIM-2 inhibitor project, dose response (AID 1920)
Beta-lactamase [2] = biological target: T1, Beta-lactamase; test: […] counterscreen for selective VIM-2 inhibitors: dose response biochemical high throughput screening assay to identify inhibitors of IMP-1 metallo-beta-lactamase.
Beta-lactamase [3] = biological target: Beta-lactamase (Salmonella choleraesuis (strain SC-B67), UniProt Q5J463); test: Epi-absorbance-based counterscreen for selective VIM-2 inhibitors: dose response biochemical high throughput screening assay to identify inhibitors of TEM-1 serine-beta-lactamase.
Beta-lactamase (Salmonella choleraesuis (strain SC-B67), UniProt Q5J463), sequence (Q5J463 whole entry): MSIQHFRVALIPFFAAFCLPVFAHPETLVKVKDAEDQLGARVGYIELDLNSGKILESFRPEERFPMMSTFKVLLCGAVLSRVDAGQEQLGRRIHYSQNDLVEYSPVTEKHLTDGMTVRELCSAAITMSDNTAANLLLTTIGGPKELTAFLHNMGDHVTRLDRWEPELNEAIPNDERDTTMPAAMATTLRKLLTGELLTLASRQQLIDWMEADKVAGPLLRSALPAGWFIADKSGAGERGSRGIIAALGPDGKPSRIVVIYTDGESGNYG

[4] = Counterscreen for inhibitors of Trypanosoma brucei methionyl tRNA synthetase (MetRS): Luminescence-based cell-based high throughput dose response assay to identify compounds that are cytotoxic to Jurkat human T lymphocyte cells.; type: functional
[5] = biological target: T2, Methionyl-tRNA synthetase, putative (Trypanosoma brucei brucei, UniProt Q38C91); type: functional, Trypanosoma brucei brucei strain 927/4 GUTat10.1
T2 sequence (Q38C91 whole entry): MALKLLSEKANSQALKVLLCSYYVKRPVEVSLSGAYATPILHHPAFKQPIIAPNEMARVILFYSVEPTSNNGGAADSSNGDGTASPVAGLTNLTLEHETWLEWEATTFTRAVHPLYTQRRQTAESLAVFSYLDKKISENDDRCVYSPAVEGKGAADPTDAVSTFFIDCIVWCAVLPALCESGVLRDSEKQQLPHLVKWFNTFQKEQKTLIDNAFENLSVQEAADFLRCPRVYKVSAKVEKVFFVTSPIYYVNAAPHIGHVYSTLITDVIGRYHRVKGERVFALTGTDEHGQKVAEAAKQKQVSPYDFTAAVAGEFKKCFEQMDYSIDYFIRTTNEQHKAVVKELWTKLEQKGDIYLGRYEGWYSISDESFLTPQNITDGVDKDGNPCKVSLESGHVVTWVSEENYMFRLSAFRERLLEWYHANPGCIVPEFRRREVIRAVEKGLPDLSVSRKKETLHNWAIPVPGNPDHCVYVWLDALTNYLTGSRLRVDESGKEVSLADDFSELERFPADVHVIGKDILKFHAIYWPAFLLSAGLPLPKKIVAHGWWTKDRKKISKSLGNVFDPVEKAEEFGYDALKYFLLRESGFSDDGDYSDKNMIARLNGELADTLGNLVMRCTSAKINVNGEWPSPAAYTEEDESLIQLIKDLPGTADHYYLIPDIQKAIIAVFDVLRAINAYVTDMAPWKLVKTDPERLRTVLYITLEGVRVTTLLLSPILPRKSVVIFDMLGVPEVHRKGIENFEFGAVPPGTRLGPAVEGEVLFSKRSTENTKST

[6] = biological target: T2, Methionyl-tRNA synthetase, putative; type: functional, Trypanosoma brucei brucei strain 927/4 GUTat10.1; remark: listed apart in the source
[7] = Counterscreen for activators of the function of SWI/SNF related, matrix associated, actin dependent regulator of chromatin, subfamily a, member 2 (SMARCA2, BRM): Luminescence-based cell-based high throughput dose response assay to identify non-selective compounds using the VP16 reporter assay.; type: functional
[8] = biological target: SWI/SNF-related matrix-associated actin-dependent regulator of chromatin subfamily A member 2 (Homo sapiens, UniProt P51531); test: Luminescence-based cell-based high throughput dose response assay to identify activators of the function of SWI/SNF related, matrix associated, actin dependent regulator of chromatin, subfamily a, member 2 (SMARCA2, BRM).; type: functional
SWI/SNF-related matrix-associated actin-dependent regulator of chromatin subfamily A member 2, sequence (P51531 whole entry): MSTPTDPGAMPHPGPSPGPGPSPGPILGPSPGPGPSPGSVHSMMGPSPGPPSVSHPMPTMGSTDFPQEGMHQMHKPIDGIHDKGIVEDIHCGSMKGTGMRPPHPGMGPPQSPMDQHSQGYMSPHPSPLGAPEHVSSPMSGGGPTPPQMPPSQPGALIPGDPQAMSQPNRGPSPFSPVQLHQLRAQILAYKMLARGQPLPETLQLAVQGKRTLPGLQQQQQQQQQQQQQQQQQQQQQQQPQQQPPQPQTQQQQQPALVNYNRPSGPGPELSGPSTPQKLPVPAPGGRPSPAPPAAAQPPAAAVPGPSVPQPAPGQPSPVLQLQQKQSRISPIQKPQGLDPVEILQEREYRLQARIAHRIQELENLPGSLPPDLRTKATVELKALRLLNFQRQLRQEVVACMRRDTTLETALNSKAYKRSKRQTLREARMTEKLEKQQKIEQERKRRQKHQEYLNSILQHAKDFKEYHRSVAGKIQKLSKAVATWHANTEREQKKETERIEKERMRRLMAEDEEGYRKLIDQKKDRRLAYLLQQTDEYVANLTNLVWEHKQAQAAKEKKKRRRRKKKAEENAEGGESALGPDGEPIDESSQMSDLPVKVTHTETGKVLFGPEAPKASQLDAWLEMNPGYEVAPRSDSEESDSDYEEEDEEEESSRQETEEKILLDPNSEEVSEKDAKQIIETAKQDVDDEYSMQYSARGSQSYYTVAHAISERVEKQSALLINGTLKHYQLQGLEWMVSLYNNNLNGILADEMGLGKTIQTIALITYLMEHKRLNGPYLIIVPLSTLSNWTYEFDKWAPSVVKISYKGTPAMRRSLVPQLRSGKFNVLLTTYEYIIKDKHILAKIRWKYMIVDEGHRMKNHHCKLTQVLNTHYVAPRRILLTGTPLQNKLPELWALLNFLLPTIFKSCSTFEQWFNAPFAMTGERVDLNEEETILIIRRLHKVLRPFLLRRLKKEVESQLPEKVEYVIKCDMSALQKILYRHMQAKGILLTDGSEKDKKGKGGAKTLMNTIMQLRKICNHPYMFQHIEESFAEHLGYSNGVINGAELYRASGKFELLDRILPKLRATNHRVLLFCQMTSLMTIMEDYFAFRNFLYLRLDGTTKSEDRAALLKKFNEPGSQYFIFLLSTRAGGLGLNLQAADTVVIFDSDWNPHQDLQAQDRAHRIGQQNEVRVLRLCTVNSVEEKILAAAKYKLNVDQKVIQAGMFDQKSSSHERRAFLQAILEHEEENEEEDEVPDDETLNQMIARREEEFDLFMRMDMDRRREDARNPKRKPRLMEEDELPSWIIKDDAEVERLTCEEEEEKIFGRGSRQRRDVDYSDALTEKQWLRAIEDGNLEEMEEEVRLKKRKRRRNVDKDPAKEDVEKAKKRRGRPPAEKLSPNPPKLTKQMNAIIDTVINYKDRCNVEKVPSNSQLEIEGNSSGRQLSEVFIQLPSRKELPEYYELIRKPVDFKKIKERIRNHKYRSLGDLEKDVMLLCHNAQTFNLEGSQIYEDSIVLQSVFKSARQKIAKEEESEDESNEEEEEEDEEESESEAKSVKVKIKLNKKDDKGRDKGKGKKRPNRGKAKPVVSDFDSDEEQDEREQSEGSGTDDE

[9] = inhibition of bursicon-driven LGR2 cAMP signaling – cell-based, HEK293, CRE-luciferase reporter, cherry pick, dose response (AID 743342); type: functional
[10] = A549 cell cytotoxicity, dose response, cytotoxicity control, plate reader, cherry-pick, antagonist series (AID 743412); type: functional, cell-based
[11] = viability loss in HEK293 cells – cell-based, plate reader, cherry-picked samples, cytotoxicity control, dose response (AID 743446); type: functional
[12] = general mammalian cell viability loss – inhibitor set, cherry-pick, set 2, cytotoxicity control for miR-122 modulator project, dose response (AID 720697); type: functional, cell-based
[13] = biological target: T3, Heat shock factor protein 1 (Mus musculus, UniProt P38532); test: enhancement of HSF1-driven luciferase signal – cell-based, NIH3T3, luminescence, dose retest, confirmation (AID 435004); type: functional;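 note: stress induced by proteasome inhibitor MG132 added 30 min after compound; luciferase reporter driven by HSF1 response element in NIH3T3 cells; actives raise luminescence as potentiators of the MG132 stress response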
T3 sequence (P38532 whole entry): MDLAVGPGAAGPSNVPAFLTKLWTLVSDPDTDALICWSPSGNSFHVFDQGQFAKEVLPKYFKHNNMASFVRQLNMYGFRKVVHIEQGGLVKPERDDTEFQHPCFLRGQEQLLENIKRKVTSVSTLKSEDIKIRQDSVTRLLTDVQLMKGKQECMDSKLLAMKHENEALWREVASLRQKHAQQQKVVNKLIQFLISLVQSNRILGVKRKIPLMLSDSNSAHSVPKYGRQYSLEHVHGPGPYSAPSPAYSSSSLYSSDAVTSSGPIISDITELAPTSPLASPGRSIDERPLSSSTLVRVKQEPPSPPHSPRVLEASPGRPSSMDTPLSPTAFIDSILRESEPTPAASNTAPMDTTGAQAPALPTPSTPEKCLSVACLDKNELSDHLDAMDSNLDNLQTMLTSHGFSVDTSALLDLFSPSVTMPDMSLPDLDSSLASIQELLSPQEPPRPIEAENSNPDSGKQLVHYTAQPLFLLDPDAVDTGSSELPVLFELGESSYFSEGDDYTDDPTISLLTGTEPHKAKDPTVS

[14] = biological target: Disintegrin and metalloproteinase domain-containing protein 17 (Homo sapiens, UniProt P78536); test: inhibition of ADAM17 substrate cleavage – biochemical, quenched FRET substrate, counter-screen for ADAM10 exosite inhibitor project, dose response (AID 743253)
Disintegrin and metalloproteinase domain-containing protein 17, sequence (P78536 whole entry, the tested form may be a part): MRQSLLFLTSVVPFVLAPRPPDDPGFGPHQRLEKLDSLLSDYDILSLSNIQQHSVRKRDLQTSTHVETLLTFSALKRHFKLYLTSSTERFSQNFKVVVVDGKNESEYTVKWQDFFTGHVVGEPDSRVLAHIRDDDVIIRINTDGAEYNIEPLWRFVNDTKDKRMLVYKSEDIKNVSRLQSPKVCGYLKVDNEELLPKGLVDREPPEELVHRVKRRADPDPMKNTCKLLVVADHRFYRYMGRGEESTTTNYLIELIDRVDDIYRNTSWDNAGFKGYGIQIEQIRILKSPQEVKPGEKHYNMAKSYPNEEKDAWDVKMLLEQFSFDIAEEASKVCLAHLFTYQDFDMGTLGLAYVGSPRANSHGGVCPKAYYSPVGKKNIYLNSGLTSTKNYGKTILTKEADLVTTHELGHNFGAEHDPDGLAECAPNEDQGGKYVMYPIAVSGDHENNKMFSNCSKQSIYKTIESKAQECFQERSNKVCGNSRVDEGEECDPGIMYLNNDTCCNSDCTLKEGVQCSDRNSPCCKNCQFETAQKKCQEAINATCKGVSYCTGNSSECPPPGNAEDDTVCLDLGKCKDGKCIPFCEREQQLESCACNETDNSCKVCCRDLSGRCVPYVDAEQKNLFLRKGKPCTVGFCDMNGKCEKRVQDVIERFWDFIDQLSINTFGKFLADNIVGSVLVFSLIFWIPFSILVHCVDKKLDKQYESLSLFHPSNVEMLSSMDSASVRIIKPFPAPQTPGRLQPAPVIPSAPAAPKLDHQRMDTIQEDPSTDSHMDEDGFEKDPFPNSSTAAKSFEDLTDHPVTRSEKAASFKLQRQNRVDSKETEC

[15] = potency of ADAM10 substrate cleavage blockers – biochemical, QFRET, dose response (AID 743254);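 note: ADAM10 enzyme with the DM2 quenched FRET peptide as substrate; EDANS fluorescence gain as the protease cuts the substrate; inhibitor potency against ADAM10 proteolytic activity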
[16] = biological target: Voltage-dependent T-type calcium channel subunit alpha-1H (Homo sapiens, UniProt O95180); type: functional;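 note: channel activity triggered by adding a high calcium stimulation buffer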
[17] = NIH3T3 cell viability loss – ATP luminescence, mouse fibroblasts, counter-screen, dose response (AID 2010); type: functional, cell-based;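 note: cells exposed to compound for about 90 hours before reading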
[18] = Trypanosoma cruzi growth suppression in host cells – NIH3T3 host cells, beta-gal luminescence, confirmation (AID 2044); type: functional, cell-based;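 note: intracellular parasites grown in NIH/3T3 mouse fibroblasts as host cells; luminescent beta-galactosidase reporter signal from transgenic T. cruzi replicating inside host cells; inhibitors lower the luminescence signal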
[19] = T. cruzi growth inhibition in host cells, dose response, cell-based, plate reader, dry powder, set 2 (AID 652275); type: functional
[20] = biological target: T4, Small ubiquitin-related modifier 1 (Homo sapiens, UniProt P63165); test: SUMO1 protein-protein binding blockers, potency – biochemical, FRET, dose response (AID 624383); type: functional; details: read-out: IC50_Mean
T4 sequence (P63165 whole entry): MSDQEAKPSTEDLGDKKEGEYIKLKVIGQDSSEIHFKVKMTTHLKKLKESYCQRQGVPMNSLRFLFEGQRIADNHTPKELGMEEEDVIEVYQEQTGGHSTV

[21] = biological target: T5, Tyrosine-protein phosphatase non-receptor type 7 (Homo sapiens, UniProt P35236); test: HePTP tyrosine phosphatase activity blockers – biochemical, absorbance, leukemia target, primary screen (AID 521); type: functional
T5 sequence (P35236 whole entry): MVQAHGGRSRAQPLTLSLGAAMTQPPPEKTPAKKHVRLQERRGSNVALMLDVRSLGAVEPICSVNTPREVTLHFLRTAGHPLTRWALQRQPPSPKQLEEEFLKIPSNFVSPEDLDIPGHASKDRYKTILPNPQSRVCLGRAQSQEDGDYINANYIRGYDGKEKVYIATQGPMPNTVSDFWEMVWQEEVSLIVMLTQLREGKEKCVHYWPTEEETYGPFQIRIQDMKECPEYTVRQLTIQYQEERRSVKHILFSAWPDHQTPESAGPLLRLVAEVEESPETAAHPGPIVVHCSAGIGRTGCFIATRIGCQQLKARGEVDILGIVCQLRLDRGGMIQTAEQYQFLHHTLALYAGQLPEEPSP

[22] = biological target: T6, Induced myeloid leukemia cell differentiation protein Mcl-1 (Homo sapiens, UniProt Q07820); test: blockers of MCL1 binding to BIM peptide – biochemical, fluorescence polarization, BIM-BH3 peptide, 1536-well, dose response (AID 2217)
T6 sequence (Q07820 whole entry): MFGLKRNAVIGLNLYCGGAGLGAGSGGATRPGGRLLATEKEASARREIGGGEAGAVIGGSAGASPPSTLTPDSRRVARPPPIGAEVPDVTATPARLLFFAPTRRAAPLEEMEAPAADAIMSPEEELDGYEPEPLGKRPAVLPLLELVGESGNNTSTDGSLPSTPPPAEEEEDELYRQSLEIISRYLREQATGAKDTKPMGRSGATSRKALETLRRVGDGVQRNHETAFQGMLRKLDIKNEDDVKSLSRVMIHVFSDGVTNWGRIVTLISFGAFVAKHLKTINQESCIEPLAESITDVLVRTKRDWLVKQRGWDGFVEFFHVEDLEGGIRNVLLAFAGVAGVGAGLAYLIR

[23] = biological target: T4, Small ubiquitin-related modifier 1; test: SUMO1 protein interaction blockers, potency – biochemical, fluorescence polarization, uHTS hits, dose response (AID 624382); type: functional; details: read-out: IC50_Mean
Bcl-2-like protein 1 = Bcl-2-like protein 1 (Homo sapiens, UniProt Q07817); test: blockers of BCLXL peptide binding – biochemical, fluorescence polarization, 1536-well, selectivity assay for MCL1 inhibitor project, dose response (AID 2218)
Bcl-2-like protein 1, sequence (Q07817 whole entry, the tested form may be a part): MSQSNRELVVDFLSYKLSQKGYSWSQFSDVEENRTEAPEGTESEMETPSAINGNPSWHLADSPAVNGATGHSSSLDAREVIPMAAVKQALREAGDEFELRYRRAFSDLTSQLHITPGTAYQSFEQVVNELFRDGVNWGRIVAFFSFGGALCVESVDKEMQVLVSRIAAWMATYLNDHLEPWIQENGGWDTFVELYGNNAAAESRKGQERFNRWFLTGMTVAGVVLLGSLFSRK

[24] = biological target: T7, Carboxy-terminal domain RNA polymerase II polypeptide A small phosphatase 1 (Homo sapiens, UniProt Q9GZU7); test: CTDSP1 inhibitors, concentration-response, biochemical, absorbance readout, ultra-high-throughput screen actives (AID 540297); type: functional
T7 sequence (Q9GZU7 whole entry): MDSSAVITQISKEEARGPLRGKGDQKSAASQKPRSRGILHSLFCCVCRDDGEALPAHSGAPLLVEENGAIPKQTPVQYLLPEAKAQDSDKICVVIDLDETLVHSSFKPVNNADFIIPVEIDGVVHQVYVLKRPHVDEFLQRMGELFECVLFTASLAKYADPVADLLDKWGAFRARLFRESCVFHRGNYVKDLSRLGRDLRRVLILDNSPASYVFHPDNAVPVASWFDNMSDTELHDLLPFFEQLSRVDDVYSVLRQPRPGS

[25] = biological target: T6, Induced myeloid leukemia cell differentiation protein Mcl-1; type: functional
[26] = biological target: Luciferin 4-monooxygenase (Photinus pyralis, UniProt P08659); test: Counter Screen for Luciferase-based Assay Positives. [Related pubchem assays: 620, 618, 411 ]
Luciferin 4-monooxygenase, sequence (P08659 whole entry): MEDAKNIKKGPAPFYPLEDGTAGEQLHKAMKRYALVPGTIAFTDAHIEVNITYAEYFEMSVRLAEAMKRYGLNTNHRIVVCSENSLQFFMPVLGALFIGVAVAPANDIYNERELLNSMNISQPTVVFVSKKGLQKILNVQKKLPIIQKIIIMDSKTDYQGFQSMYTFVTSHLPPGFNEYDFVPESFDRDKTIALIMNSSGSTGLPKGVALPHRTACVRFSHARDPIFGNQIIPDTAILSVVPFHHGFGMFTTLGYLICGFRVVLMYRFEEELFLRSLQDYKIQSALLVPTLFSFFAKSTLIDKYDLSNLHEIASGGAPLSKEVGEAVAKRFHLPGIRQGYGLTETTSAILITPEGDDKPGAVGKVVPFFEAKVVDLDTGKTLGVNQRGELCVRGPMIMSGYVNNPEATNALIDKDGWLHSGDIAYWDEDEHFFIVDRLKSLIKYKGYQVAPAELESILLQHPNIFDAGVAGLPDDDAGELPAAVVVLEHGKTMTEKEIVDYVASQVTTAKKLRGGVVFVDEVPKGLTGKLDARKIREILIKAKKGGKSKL

[27] = biological target: Fructose-bisphosphate aldolase (Mycobacterium tuberculosis, UniProt P9WQA3); test: Fluorescence-based biochemical high throughput dose response assay for inhibitors of the fructose-bisphosphate aldolase (FBA) of M. tuberculosis.; type: functional
Fructose-bisphosphate aldolase, sequence (P9WQA3 whole entry): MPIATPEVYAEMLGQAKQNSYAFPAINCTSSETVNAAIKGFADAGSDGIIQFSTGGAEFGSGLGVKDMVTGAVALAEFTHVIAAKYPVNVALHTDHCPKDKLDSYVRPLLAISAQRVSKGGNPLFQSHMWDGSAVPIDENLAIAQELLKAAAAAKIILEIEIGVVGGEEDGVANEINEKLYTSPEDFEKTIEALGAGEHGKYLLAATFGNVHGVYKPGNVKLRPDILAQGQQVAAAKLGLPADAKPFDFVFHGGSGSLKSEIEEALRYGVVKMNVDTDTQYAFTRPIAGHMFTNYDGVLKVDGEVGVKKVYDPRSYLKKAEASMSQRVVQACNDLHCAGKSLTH

HT-1080 = test: HT1080 cell viability loss – fluorescence readout (AID 620); type: functional, cell-based; details: Homo sapiens
[28] = viability of uninfected HEp-2 cells – cell-based, HTS, cytotoxicity control for RSV inhibitor project, dose response (AID 2410); type: functional; details: human respiratory syncytial virus
[29] = general mammalian cell viability loss – activator set, cherry-pick, cytotoxicity control for miR-122 modulator project, dose response (AID 720690); type: functional, cell-based;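 note: HEK293T human cells scored for general mammalian cytotoxicity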
[30] = activation of miR-122 Renilla sensor silencing – cell-based, Huh7 psiCHECK-miR122, Renilla luciferase, cherry-picked, dose response (AID 651956); type: functional;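 note: huh7 hepatoma cells stably carrying a psiCHECK-2 miR-122 sensor plasmid; renilla luciferase signal reporting endogenous miR-122 activity after 48 h compound exposure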

T1 sequence (Q79MP6 whole entry): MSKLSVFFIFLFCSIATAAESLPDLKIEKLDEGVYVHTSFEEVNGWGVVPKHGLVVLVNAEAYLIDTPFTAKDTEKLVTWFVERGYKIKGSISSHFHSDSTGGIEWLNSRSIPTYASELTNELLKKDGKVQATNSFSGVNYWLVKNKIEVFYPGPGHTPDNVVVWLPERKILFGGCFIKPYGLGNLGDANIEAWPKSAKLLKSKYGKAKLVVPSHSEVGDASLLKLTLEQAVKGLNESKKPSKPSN

Cc1cc(=O)oc2c3c(cc(OCC(=O)N4CCC[C@H]4C(=O)O)c12)OC(C)(C)CC3
IC50 (Beta-lactamase [1]): > 59.6 µM (inactive) | IC50 (Beta-lactamase [2]): > 59.6 µM (inactive) | IC50 (Beta-lactamase [3]): > 59.6 µM (inactive)

Cc1cc(Br)ccc1NC(=O)c1ccc(-n2cncn2)c([N+](=O)[O-])c1
IC50 [4]: 83.3 µM (inactive) | IC50 [5]: 5.79 µM (active) | IC50 [6]: 119 µM (inactive)

CC(=O)Nc1cc(-c2ccc(N3CCN(C)CC3)cc2)cn2c(-c3ccc(F)cc3)cnc12
EC50 [7]: > 91.2 µM (inactive) | EC50 [8]: > 91.2 µM (inactive)

COc1ccc(NC(=O)N(C)C[C@@H]2OCCCC[C@H](C)Oc3ccc(NC(=O)NC4CCCCC4)cc3C(=O)N([C@H](C)CO)C[C@@H]2C)cc1
AC50 [9]: 18.2 µM (active)

CC1CCCCC1n1c(S)nnc1-c1cccnc1 (stereo unspecified)
IC50 (Beta-lactamase [1]): > 59.6 µM (inactive) | IC50 (Beta-lactamase [2]): > 59.6 µM (inactive) | IC50 (Beta-lactamase [3]): > 59.6 µM (inactive)

C[C@H](CO)N1C[C@H](C)[C@H](CN(C)C(=O)Nc2ccc(C(F)(F)F)cc2)OCCCC[C@H](C)Oc2ccc(NC(=O)CCC(F)(F)F)cc2C1=O
AC50 [9]: 1.29 µM (active) | AC50 [10]: 35.6 µM (active) | AC50 [11]: 32.9 µM (active)

CN1C(=O)c2cc(NC(=O)C3CC3)ccc2OC[C@@H]2O[C@H](CC(=O)NC3CCC3)CC[C@H]21
AC50 [12]: 9.32 µM (active)

N#Cc1c(-c2ccccc2)c(-c2ccccc2)n(Cc2ccco2)c1NC(=O)c1cccs1
EC50 [13]: > 260 µM (inactive) | IC50 [14]: > 69.5 µM (inactive) | IC50 [15]: > 69.5 µM (inactive)

Cc1cccc2cc(CN(Cc3ccco3)C(=O)Nc3cccc(C#N)c3)c(Cl)nc12
EC50 [16]: 6.15 µM (active) | EC50 [17]: 26.5 µM (active) | EC50 [18]: 1.94 µM (active) | IC50 [14]: > 69.5 µM (inactive) | IC50 [15]: > 69.5 µM (inactive)

CN(C)CC#Cc1cccc(-c2nc(C(=O)NCc3ccc(Oc4ccccc4)cc3)cc3c2[C@@H](CCO)N([S+]([O-])C(C)(C)C)C3)c1 (stereo partly specified)
AC50 [19]: 0.697 µM (active)

Cn1cnnc1SCC(=O)Nc1sc2c(c1C(N)=O)CCC2
IC50 [20]: 13.7 µM (active) | IC50 [21]: 2.43 µM (active) | IC50 [22]: 8.58 µM (active) | IC50 [23]: > 66.6 µM (inactive) | IC50 (Bcl-2-like protein 1): > 36.3 µM (not active) | IC50 [24]: 2.77 µM (active) | IC50 [25]: 3.16 µM (active)

Cc1ccc2nc(-c3cccc(N)c3)oc2c1
EC50 [26]: 9.87 µM (active) | IC50 [27]: 0.588 µM (active) | EC50 (HT-1080): > 50 µM (not active)

Nc1c(Cl)ncnc1Nc1ccc(C(=O)O)cc1
IC50 [4]: 83.2 µM (inactive) | IC50 [5]: 3.93 µM (active) | IC50 [6]: 12.5 µM (inactive)

CCOC(=O)c1cc2c(c(-c3cccc(C#CCN(C)C)c3)n1)[C@@H](CCO)N([S+]([O-])C(C)(C)C)C2 (stereo partly specified)
AC50 [19]: 16.2 µM (active)

COc1ccc(Cn2nnnc2C(CC(C)C)N2CCN(c3ccccc3)CC2)cc1 (stereo unspecified)
CC50 [28]: > 50 µM (active) | IC50 [27]: > 9.99 µM (inactive)

CC(C)(C)NC(=O)C(CCc1ccccc1)n1c(=O)c(-c2ccccc2)nc2ccccc21 (stereo unspecified)
EC50 [7]: > 91.1 µM (inactive) | EC50 [8]: > 91.1 µM (inactive)

C[C@@H]1CCCCO[C@@H](CN(C)CC2CCCCC2)[C@H](C)CN([C@H](C)CO)C(=O)c2cc(NC(=O)Nc3cccc4ccccc34)ccc2O1
AC50 [29]: 14.8 µM (active) | AC50 [12]: 13.8 µM (active) | AC50 [30]: 7.47 µM (active)
